“Also recorded” adds a separate entry of the source.
Legend:
Assay type in all cases: cell-based
[1] = system: wild-type Saccharomyces cerevisiae CEN.PK113-7D yeast strain; experiment: Chronological lifespan analysis in yeast (PI, outgrowth, spotting)
Description: Yeast strain was recovered from frozen glycerol stock at 30° C. on YPD agar medium. Yeast was left to propagate in SD medium overnight at 30° C. with shaking at 220 revolutions per minute (rpm). Cells propagated overnight were diluted to a starting optical density at 600 nm (OD600) of approximately 0.2 in fresh SD medium to begin the chronological lifespan (CLS) experiments.
CLS experiments were performed in 96-well plates with 200 μL yeast culture. Cellular inoculums were transferred into 96-well plates containing serially double-diluted concentrations (0 to 10 nM) of rapamycin. […] Cells were incubated at 30° C., and the growth was measured at different time points. The growth time point 72 hours was considered as Day 1 for the CLS assay. Cell survival was quantified at various age time points by three different approaches: (i) PI fluorescence-based method, (ii) outgrowth in YPD liquid medium, and (iii) spotting assay (FIG. 1).
Yeast cells (40 μL) from different age time points were transferred into a second 96-well plate (different to the 96-well plate in which the CLS analysis as outlined above was performed). Cells were washed and incubated in 100 μL 1×phosphate buffered saline (PBS) with propidium iodide (PI) (5 μg/mL) for 15 minutes in the dark. Positive and negative control samples were included for quantitative analysis. Positive control (cells boiled at 100° C. for 15 minutes) was PI-stained and processed in the same 96-well plate. Samples without PI-stained cells served as the negative control. After incubation, cells were washed and resuspended in 100 μL PBS. The fluorescence reading of the samples (excitation and emission wavelengths at 535 nm and 617 nm, respectively) and OD600 were measured with a microplate reader (BioTek, Winooski, Vermont, United States). The fluorescence intensity of each sample was normalized with OD600. The background fluorescence signal of the unstained negative sample was subtracted from the normalized fluorescence intensity of each sample. The obtained fluorescence intensity of the positive control (boiled dead cells) was considered 0% cell survival. Cell death was validated by allowing the boiled dead cells to grow in medium. Cell survival at different age time points of samples were calculated by normalizing the fluorescence intensity with positive control sample (boiled cells).
Yeast stationary culture (3 μL) of different age time points were transferred to a second 96-well plate, containing 200 μL YPD medium, and incubated for 24 hours at 30° C. Outgrowth (OD600) of aged cells was measured by the microplate reader. Quantification of cell survival for each age point was determined as relative to Day 1 (considered 100% cell survival). This quantification was performed by using the formula,
Yeast stationary culture (3 μL) of different age time points were spotted onto a YPD agar plate and incubated for 48 hours at 30° C. The outgrowth of aged cells on the YPD agar plate was photographed using the Bio-Rad GelDoc Imaging System (Bio-Rad, Hercules, California, United States).

[2] = system: IMR90 cells; experiment: CLS in human cells, PrestoBlue outgrowth assay (IMR90)
Description: (§1) Human embryonic kidney 293 (HEK293) cells (ATCC, Manassas, Virginia, United States of America), lung epithelial (A549) cells (ATCC, Manassas, Virginia, United States of America) and fibroblast (IMR90) cells (ATCC, Manassas, Virginia, United States of America) were cultured in the standard D10 medium, consisting of high-glucose DMEM (HyClone, Cytiva, Marlborough, Massachusetts, USA) supplemented with 10% Fetal Bovine Serum (FBS) (Gibco™, ThermoFisher Scientific, Waltham, Massachusetts, USA) and 1% Penicillin Streptomycin Solution (Gibco™, ThermoFisher Scientific, Waltham, Massachusetts, USA). All cells were cultured in a humidified incubator with 5% CO2 at 37° C.
The seeding, washing and trypsinization process was performed similarly to that for the crystal violet assay. 80,000 cells were seeded in a 96-well culture plate with or without compound treatment. […] After one day of growth in a 37° C. incubator with 5% CO2, the cell number was assessed with PrestoBlue™ Cell Viability Reagent (Invitrogen™, Waltham, Massachusetts, USA) according to the manufacturer's protocol. […] After incubation in a 37° C. incubator with 5% CO2 for 3 to 4 hours, reading was taken with a BioTek Synergy MX microplate reader (BioTek, Winooski, Vermont, United States) at excitation and emission wavelengths of 560 nm and 590 nm, respectively. […]

[3] = system: HEK293 cells; experiment: CLS in human cells, PrestoBlue outgrowth assay (HEK293)
Description: as §1
The seeding, washing and trypsinization process was performed similarly to that for the crystal violet assay. 80,000 cells were seeded in a 96-well culture plate with or without compound treatment. At different age time points after seeding, floating dead cells were aspirated with exhausted D10 medium, cells were gently washed with 1×PBS to remove D10 medium residue and treated with 0.2 mL of 0.25% trypsin. […] After one day of growth in a 37° C. incubator with 5% CO2, the cell number was assessed with PrestoBlue™ Cell Viability Reagent (Invitrogen™, Waltham, Massachusetts, USA) according to the manufacturer's protocol. […] After incubation in a 37° C. incubator with 5% CO2 for 3 to 4 hours, reading was taken with a BioTek Synergy MX microplate reader (BioTek, Winooski, Vermont, United States) at excitation and emission wavelengths of 560 nm and 590 nm, respectively.
PrestoBlue (PB) is a resazurin-based reagent used to detect cell viability and traces of cytotoxicity in the medium. It produces results that can be detected both colorimetrically and fluorometrically. […] The resazurin component is reduced to form resorufin by live cells, resulting in a visible change from blue colour to red colour in the reagent, at the same time developing fluorescence, which can be easily detected by a microplate reader. […] The PB assay was easy to perform as the reagent is a commercially available as ready-to-use solution.

For `OC[C@H]1O[C@H](CO)[C@@H](O)[C@@H]1O` [2,5-AM, 2,5-anhydro-D-mannitol], the “effect on yeast CLS” value ([1]; 0 to 8 mM in SD medium, up to day 21) was “extended the CLS in a concentration-dependent manner; also recorded: extended the lifespan even at the late stage of chronological aging”, the “survival of aged cells” value ([1]; 8 mM, Day 21, without compound less than 10%) was “approximately 65%” and the “effect on yeast CLS” value ([1]; very low concentrations (2 mM)) was “increased CLS”. For the same compound, the “more surviving cells compared to the untreated group” value ([2]; 2.5 mM) was 59.05%, the “more viable cells compared to the untreated group” value ([2]; 5 mM) was 59.89% and the “more viable cells compared to the untreated group” value ([3]; 2.5 mM, HEK293) was 76.31%. For the same compound, the “more surviving cells relative to the untreated group” value ([3]; 5 mM, HEK293) was 123.7% and the “CLS of HEK293 cells by outgrowth method” value ([3]; different concentrations, Day 4 normalized to Day 1 (FIG. 19)) was “Trends of lifespan extension”.

From patent publication US20250161338A1, “Compounds for Anti-aging Intervention” (AGENCY FOR SCIENCE, TECHNOLOGY AND RESEARCH, priority 2022, published 2025)
